# Laboratory results from US12498382B2, “Biomarkers for vitiligo” (INCYTE CORPORATION, priority 2019, dated 2025).
# Test system: HaCaT cells
# Assay: Normalized expression of target genes in HaCaT cells stimulated with TNFα and IFNγ in presence/absence of JAK inhibitors (QuantiGene Plex)
# Assay type: cell-based, human
# Settings: for MFI, normalized expression of IYK2: gene IYK2; for MFI, normalized expression of IYK2 / MFI, normalized expression of TNF / MFI, normalized expression of VEGFA: HaCaT, normalized to HPRT1, mean ± standard error; for MFI, normalized expression of TNF: gene TNF; for MFI, normalized expression of VEGFA: gene VEGFA
# Method: Transformed human keratinocyte (HaCaT) cells were purchased from AddexBio (Catalog #T0020001) and cultured as outlined in Example 5. […] After 48 hours, cell culture media was removed from 24 well plates and replaced with 250 uL of media containing serial diluted drug, then incubated for 15 minutes at 37° C./5% CO2. After drug incubation, 250 uL of combinatory stimulation containing Recombinant Human Interferon gamma (R&D Systems, Catalog #285-IF-100) and Recombinant Human Tumor Necrosis Factor alpha (R&D Systems, Catalog #210-TA-020) was added to plates. The final concentration of Recombinant Human Interferon gamma and Recombinant Human Tumor Necrosis Factor alpha was 25 ng/mL of each cytokine. Cytokine stimulation added to wells containing drug brought the final concentrations for each drug treatment to 25 nM, 50 nM, 100 nM, and 200 nM. Treated plates were mixed by gentle agitation for 30 seconds then incubated for 24 hours at 37° C./5% CO2. At the end of the 24 hour incubation media was immediately removed from each plate.
# RNA was isolated from HaCaT cells using the QuantiGene Plex Assay reagents and protocols (Affymetrix, Catalog #QGP-232-M18042302) according to the manufacturer's guidelines. Cells were washed with 1×DPBS then lysed by incubation with provided QuantiGene lysis buffer for 30 minutes at 50-55° C. Cell lysates were incubated for 18-24 hours at 55° C. with capture beads and probe set designed to specifically hybridize to mRNA from targets of interest. Genes included housekeeping genes (e.g., HPRT1 and GAPDH) used for the normalization of the results. After the 18-24 hour incubation signal was amplified utilizing branched DNA methodologies, according to the manufacturer's procedures (Affymetrix, Catalog #QGP-232-M18042302). After hybridization and wash steps assay plate was read on the Luminex 200 and data were expressed as Net Median Fluorescence Intensity. Data was then normalized to the Net Median Fluorescence Intensity of the housekeeping gene HPRT1 (Table 14).
# [1] = TNFα+IFNγ 25 ng/mL, Drug Conc 25 nM
# [2] = TNFα+IFNγ 25 ng/mL, Drug Conc 50 nM
# [3] = TNFα+IFNγ 25 ng/mL, Drug Conc 100 nM
# [4] = TNFα+IFNγ 25 ng/mL, Drug Conc 200 nM
# [5] = TNFα (25 ng/mL) and IFNγ (25 ng/mL), 1st (lowest, likely 25 nM) of 4 drug conc
# [6] = TNFα (25 ng/mL) and IFNγ (25 ng/mL), 2nd (likely 50 nM) of 4 drug conc
# [7] = TNFα (25 ng/mL) and IFNγ (25 ng/mL), 3rd (likely 100 nM) of 4 drug conc
# [8] = TNFα (25 ng/mL) and IFNγ (25 ng/mL), 4th (highest, likely 200 nM) of 4 drug conc
# [9] = drug without TNFα/IFNγ stimulation
# [10] = no stimulation, Drug Conc 200 nM
compound,measurement,setting,value
"C[C@@H](O)c1nc2cnc3ccsc3c2n1[C@H]1CC[C@H](CC#N)OC1 [Cpd D, ((2R,5S)-5-{2-[(1R)-1-hydroxyethyl]-1H-imidazo[4,5-d]thieno[3,2-b]pyridin-1-yl}tetrahydro-2H-pyran-2-yl)acetonitrile]",AREG normalized expression MFI,[1],725.6 ± 33.78
same,CCL17 normalized expression MFI,[1],3.08 ± 0.64
same,CCL18 normalized expression MFI,[1],1.89 ± 0.28
same,FLG normalized expression MFI,[1],71.27 ± 11.09
same,IL6 normalized expression MFI,[1],132.28 ± 7.41
same,IL8 normalized expression MFI,[1],398.64 ± 22.41
same,IL17A normalized expression MFI,[1],1.05 ± 0.18
same,IL22 normalized expression MFI,[1],1.39 ± 0.23
same,IL23A normalized expression MFI,[1],48.01 ± 2.69
same,IL31 normalized expression MFI,[1],1.99 ± 0.4
same,ILIA normalized expression MFI,[1],1269.66 ± 50.59
same,JAK1 normalized expression MFI,[1],200.4 ± 9.84
same,JAK2 normalized expression MFI,[1],108.89 ± 3.25
same,JAK3 normalized expression MFI,[1],0.97 ± 0.18
same,LOR normalized expression MFI,[1],23 ± 9.47
same,S100A7 normalized expression MFI,[1],5.37 ± 1.3
same,S100A12 normalized expression MFI,[1],1.31 ± 0.18
same,SERPINB3 normalized expression MFI,[1],2 ± 0.3
same,SERPINB4 normalized expression MFI,[1],2.78 ± 0.31
same,STAT1 normalized expression MFI,[1],3156.82 ± 244.78
same,STAT3 normalized expression MFI,[1],1572.76 ± 65.5
same,STAT4 normalized expression MFI,[1],5.4 ± 0.45
same,STAT5A normalized expression MFI,[1],20.12 ± 1.29
same,STAT5B normalized expression MFI,[1],38.56 ± 2.02
same,STAT6 normalized expression MFI,[1],1042.76 ± 29.23
same,AREG normalized expression MFI,[2],778.42 ± 44.28
same,CCL17 normalized expression MFI,[2],2.71 ± 0.41
same,CCL18 normalized expression MFI,[2],2.16 ± 0.22
same,FLG normalized expression MFI,[2],78.47 ± 10.63
same,IL6 normalized expression MFI,[2],137.61 ± 5.87
same,IL8 normalized expression MFI,[2],417.47 ± 21.97
same,IL17A normalized expression MFI,[2],1.06 ± 0.15
same,IL22 normalized expression MFI,[2],1.4 ± 0.21
same,IL23A normalized expression MFI,[2],56.64 ± 3.44
same,IL31 normalized expression MFI,[2],1.82 ± 0.44
same,ILIA normalized expression MFI,[2],1336.95 ± 50.97
same,JAK1 normalized expression MFI,[2],210.52 ± 7.73
same,JAK2 normalized expression MFI,[2],106.83 ± 5.94
same,JAK3 normalized expression MFI,[2],0.99 ± 0.2
same,LOR normalized expression MFI,[2],28.28 ± 10.86
same,S100A7 normalized expression MFI,[2],5.94 ± 1.23
same,S100A12 normalized expression MFI,[2],1.11 ± 0.18
same,SERPINB3 normalized expression MFI,[2],2.54 ± 0.33
same,SERPINB4 normalized expression MFI,[2],3.2 ± 0.53
same,STAT1 normalized expression MFI,[2],3009.6 ± 169.64
same,STAT3 normalized expression MFI,[2],1543.4 ± 58.65
same,STAT4 normalized expression MFI,[2],6.1 ± 0.36
same,STAT5A normalized expression MFI,[2],22.69 ± 1.71
same,STAT5B normalized expression MFI,[2],40.76 ± 1.91
same,STAT6 normalized expression MFI,[2],1046.46 ± 29.12
same,AREG normalized expression MFI,[3],703.3 ± 37.3
same,CCL17 normalized expression MFI,[3],2.86 ± 0.3
same,CCL18 normalized expression MFI,[3],1.74 ± 0.26
same,FLG normalized expression MFI,[3],69.64 ± 9.33
same,IL6 normalized expression MFI,[3],122.46 ± 5.35
same,IL8 normalized expression MFI,[3],410.72 ± 29.84
same,IL17A normalized expression MFI,[3],0.84 ± 0.16
same,IL22 normalized expression MFI,[3],1.24 ± 0.22
same,IL23A normalized expression MFI,[3],51.42 ± 2.55
same,IL31 normalized expression MFI,[3],1.61 ± 0.35
same,ILIA normalized expression MFI,[3],1244.96 ± 41.03
same,JAK1 normalized expression MFI,[3],200.25 ± 8.15
same,JAK2 normalized expression MFI,[3],102.64 ± 3.52
same,JAK3 normalized expression MFI,[3],1.01 ± 0.17
same,LOR normalized expression MFI,[3],21.29 ± 9.59
same,S100A7 normalized expression MFI,[3],4.6 ± 1.68
same,S100A12 normalized expression MFI,[3],1.12 ± 0.15
same,SERPINB3 normalized expression MFI,[3],2 ± 0.26
same,SERPINB4 normalized expression MFI,[3],2.64 ± 0.3
same,STAT1 normalized expression MFI,[3],2991.9 ± 200.56
same,STAT3 normalized expression MFI,[3],1549.17 ± 89.41
same,STAT4 normalized expression MFI,[3],5.83 ± 0.34
same,STAT5A normalized expression MFI,[3],19.54 ± 1.34
same,STAT5B normalized expression MFI,[3],40.91 ± 2.17
same,STAT6 normalized expression MFI,[3],985.1 ± 39.79
same,AREG normalized expression MFI,[4],713.33 ± 37.27
same,CCL17 normalized expression MFI,[4],2.34 ± 0.4
same,CCL18 normalized expression MFI,[4],1.57 ± 0.3
same,FLG normalized expression MFI,[4],72.06 ± 11.85
same,IL6 normalized expression MFI,[4],119.49 ± 4.42
same,IL8 normalized expression MFI,[4],367.56 ± 17.81
same,IL17A normalized expression MFI,[4],0.82 ± 0.13
same,IL22 normalized expression MFI,[4],1.28 ± 0.2
same,IL23A normalized expression MFI,[4],53.83 ± 3.54
same,IL31 normalized expression MFI,[4],1.51 ± 0.36
same,ILIA normalized expression MFI,[4],1163.14 ± 26.71
same,JAK1 normalized expression MFI,[4],190.53 ± 7.68
same,JAK2 normalized expression MFI,[4],92.21 ± 2.9
same,JAK3 normalized expression MFI,[4],0.86 ± 0.16
same,LOR normalized expression MFI,[4],17 ± 7.28
same,S100A7 normalized expression MFI,[4],3.77 ± 0.91
same,S100A12 normalized expression MFI,[4],0.91 ± 0.14
same,SERPINB3 normalized expression MFI,[4],1.69 ± 0.29
same,SERPINB4 normalized expression MFI,[4],2.33 ± 0.38
same,STAT1 normalized expression MFI,[4],3154.11 ± 139.56
same,STAT3 normalized expression MFI,[4],1570.19 ± 51.51
same,STAT4 normalized expression MFI,[4],5.42 ± 0.52
same,STAT5A normalized expression MFI,[4],18.33 ± 1.83
same,STAT5B normalized expression MFI,[4],36.62 ± 1.7
same,STAT6 normalized expression MFI,[4],1013.25 ± 17.15
same,"MFI, normalized expression of IYK2",[5],283.93 ± 8.16
same,"MFI, normalized expression of IYK2",[6],307.36 ± 14.87
same,"MFI, normalized expression of IYK2",[7],280.63 ± 10.46
same,"MFI, normalized expression of IYK2",[8],283.28 ± 10.88
same,"MFI, normalized expression of IYK2",[9],217.28 ± 10.09
same,"MFI, normalized expression of TNF",[5],26.07 ± 1.13
same,"MFI, normalized expression of TNF",[6],29.31 ± 2.52
same,"MFI, normalized expression of TNF",[7],27.59 ± 1.64
same,"MFI, normalized expression of TNF",[8],27.63 ± 2.3
same,"MFI, normalized expression of TNF",[9],1.59 ± 0.22
same,"MFI, normalized expression of VEGFA",[5],600.98 ± 13.99
same,"MFI, normalized expression of VEGFA",[6],582.24 ± 17.89
same,"MFI, normalized expression of VEGFA",[7],572.2 ± 19.67
same,"MFI, normalized expression of VEGFA",[8],541.01 ± 9.94
same,"MFI, normalized expression of VEGFA",[9],210.34 ± 9.72
same,AREG normalized expression MFI,[10],251.8 ± 23.68
same,CCL17 normalized expression MFI,[10],0.94 ± 0.14
same,CCL18 normalized expression MFI,[10],0.95 ± 0.19
same,FLG normalized expression MFI,[10],219.44 ± 34.83
same,IL6 normalized expression MFI,[10],5.15 ± 0.31
same,IL8 normalized expression MFI,[10],58.9 ± 5.89
same,IL17A normalized expression MFI,[10],0.43 ± 0.08
same,IL22 normalized expression MFI,[10],0.62 ± 0.11
same,IL23A normalized expression MFI,[10],9.55 ± 1.15
same,IL31 normalized expression MFI,[10],0.91 ± 0.23
same,ILIA normalized expression MFI,[10],84.51 ± 7.04
same,JAK1 normalized expression MFI,[10],171.53 ± 9.49
same,JAK2 normalized expression MFI,[10],25.25 ± 1.04
same,JAK3 normalized expression MFI,[10],0.53 ± 0.09
same,LOR normalized expression MFI,[10],12.79 ± 4.84
same,S100A7 normalized expression MFI,[10],3.69 ± 0.84
same,S100A12 normalized expression MFI,[10],0.61 ± 0.11
same,SERPINB3 normalized expression MFI,[10],1.5 ± 0.27
same,SERPINB4 normalized expression MFI,[10],1.84 ± 0.42
same,STAT1 normalized expression MFI,[10],549.79 ± 12.18
same,STAT3 normalized expression MFI,[10],750.9 ± 27.68
same,STAT4 normalized expression MFI,[10],3.75 ± 0.33
same,STAT5A normalized expression MFI,[10],1.12 ± 0.19
same,STAT5B normalized expression MFI,[10],54.64 ± 4.79
same,STAT6 normalized expression MFI,[10],762.04 ± 9.44
